Test results reported in paper PMC11655065, “Antimicrobial activity of iron-depriving pyoverdines against human opportunistic pathogens” (eLife, 2024).
≈ marks a conversion by molar mass, not a printed value. Like-named read-outs stand apart in the source and are kept apart here. Square brackets hold non-standard residues; d marks the D form. Side chains are listed from the residue outwards. Peptide text beside a SMILES is read from it. * marks the point of attachment. ξ: configuration not given here. X1 = O=C(O)CCC(=O)NC1=Cc2cc(O)c(O)cc2N2C1=NCCC2C(=O)*; NH(1-OH-2-oxopiperidin-3-yl) = O=C1C(N*)CCCN1O; ξAsp(3ξ-OH) = NC(C(=O)O)C(O)C(=O)O

Experiments:
P. aeruginosa = settings: 2012, 2013, cited from earlier work
A. baumannii [1] = test system: A. baumannii; parameters: method as in Visca et al., 2013; de Léséleuc et al., 2012; settings: ref Visca et al., 2013; de Léséleuc et al., 2012; cited from earlier work
[2] = cited from earlier work; for iron association constant: ref Bohac et al., 2019, Shapiro and Wencewicz, 2016, Sheldon and Skaar, 2020
K. pneumoniae [3] = experiment: Dose–response growth inhibition in CAA medium; assay type: cell-based, Klebsiella pneumoniae
Protocol: (§1) Pathogen overnight cultures were grown in either 8 mL tryptic soy broth (TSB; for the two S. aureus strains) or 8 mL lysogeny broth (LB; all other pathogens) in 50 mL tubes at 37°C and 220 rpm agitation. Following two washing steps with 0.8% NaCl, we adjusted the overnight cultures to an optical density at 600 nm (OD600) of 1. For overnights of environmental isolates, we followed the same procedure when working with low sample sizes, with the only difference being that culturing occurred at 28°C. For the large-scale screening experiments, we grew environmental isolates in 200 µL LB in 96-well plates shaken at 170 rpm. Cultures from plates were then directly used for experiments. For all main experiments (screen for bioactive pyoverdines and dose–response curves), we used CAA medium (1% casamino acids, 5 mM K2HPO4 * 3H2O,1 mM MgSO4*7 H2O, 25 mM HEPES buffer). This medium contains low levels of iron, triggering pyoverdine production ([Cunrath et al., 2016]).
(§2) To determine the inhibition potential of crude- and HPLC-purified pyoverdines, as well as ferribactin, we subjected A. baumannii. K. pneumoniae, P. aeruginosa, and S. aureus to serially diluted extracts. For this, the extracts were dissolved in CAA medium, filter sterilized, and diluted in the same medium. Bacterial overnight cultures were grown and prepared as described above and added to a total of 200 µL medium on a 96-well plate with four replicates per extract dilution. […] We incubated the plates at 37°C statically in the plate reader and measured the OD600 every 15 min for 24 hr. Before each measurement, plates were shaken for 15 s. We repeated the experiment up to five times with different initial extract starting concentrations. This was done to ensure that the full dose response to pyoverdine was captured. Thus, sample size per individual extract concentration varied between 4 and 20 replicates. We subtracted the blank values and the background values caused by the treatment of the respective extract concentration from the measured growth data and calculated the integral (area under the growth curve) using the R package Growthcurver ([Sprouffske and Wagner, 2016]). We then expressed growth relative to the control medium, where bacteria grew in CAA without extract or antibiotic addition. Finally, we plotted extract/antibiotic concentration vs. relative growth and fitted dose–response curves (see below).

in vitro = assay type: cell-based; settings: sheep
Protocol: To determine the hemolytic activity of pyoverdines, we quantified sheep erythrocyte hemolysis at different pyoverdine concentrations. We first centrifuged 25 mL of fresh sheep blood (Chemie Brunschwig AG, Switzerland) in a 50 mL tube at 1500 × g for 5 min at 4°C. Plasma was then gently aspirated, replaced by PBS, and tubes were gently inverted to mix. This washing procedure was repeated three times. Pyoverdines were diluted in PBS to final relative concentrations of 1, 0.5, 0.25, 0.2, 0.02, and 0.002. PBS and 0.1% Triton X-100 (Sigma-Aldrich) served as negative and positive control, respectively. 100 µL erythrocyte solution was mixed with either 100 µL pyoverdine solution or the controls in a 96-well plate in triplicates. Following an incubation at 37°C and 120 rpm for 1 hr, the plate was centrifuged at 1036 × g for 5 min at 4°C. Subsequently, 100 µL of the supernatant were transferred to a new 96-well plate. Hemoglobin release was measured at 570 nm in the plate reader and the percent hemolysis was calculated relative to the positive control [% hemolysis = (OD570 of sample – negative control)/(positive control – negative control)].

A. baumannii [4] = experiment: Infection model: treatment of infected larvae; assay type: in vivo, Galleria mellonella; settings: injected 4 hr post infection
Protocol: (§3) We tested the efficacy of pyoverdine to treat infections in larvae of the host model G. mellonella. All larvae were ordered from a local vendor (Bait Express GmbH, Basel, Switzerland) and stored without food at 16°C in the dark for up to 3 days. In a first step, we determined the mean weight of 336 final instar G. mellonella larvae (mean = 435 mg). For all subsequent experiments, we weighed the larvae and only used individuals with a mean weight ±20% (range: 340–530 mg). Larvae were immobilized on ice for 15 min, surface-sterilized with 70% ethanol, and randomly distributed to individual wells on 24-well plates. Ten larvae were used per infection–treatment combination. To inject bacteria and administer treatments, we used sterile needles (Sterican 26G, 0.45 × 12 mm [Braun]) and syringes (1 mL injekt-F [Braun]) attached to a syringe pump (New Era Pump Systems Inc, model NE-300) set to a flow rate of 5 mL/hr. For both infection and treatment delivery, a volume of 10 µL per larvae was injected between the posterior larval prolegs.
(§4) On the pathogen side, we determined the LD50 (lethal dose, killing 50% of the larvae) for A. baumannii (1.8 * 10^5 CFU/larvae) and K. pneumoniae (8.9 * 10^5 CFU/larvae) (Figure 5—figure supplement 1). For P. aeruginosa, we use 56 CFU/larvae because all doses tested killed 100% of the larvae (Figure 5—figure supplement 1). As negative control, we administered 10 µL/larvae of sterile PBS. Following infections, larvae were individually placed in wells of 24-well plates and incubated at 37°C in the dark for 4 hr.
(§5) On the treatment side, we used pyoverdines 3A06, 3G07, and s3b09 at three concentrations that were non-toxic for the NSC-34 cells. For this, we prepared stocks of 60 mg/mL, 30 mg/mL, and 6 mg/mL of crude pyoverdines. Since the injected treatment volume was 10 µL per larvae, the final pyoverdine concentrations were 0.6 mg, 0.3 mg, and 0.06 mg per larvae, respectively. When scaling theses concentrations to the doses used for the […] dose–response curves (Figure 4), the relative pyoverdine concentrations were 0.1, 0.05, and 0.01. Pyoverdine treatments were administered 4 hr after the infection through injections. Prior to treatment, larvae were immobilized on ice for 15 min. We also applied treatments to larvae infected with sterile PBS to quantify potential negative effects of the treatment in the absence of an infection. Following treatment, larvae were put back to their allocated well of the 24-well plate and kept at 37°C in the dark.
(§6) From the 12th hour post infection (hpi) onward, we regularly checked the survival of all larvae for a total of 48 hpi. Specifically, larvae were poked with a pipette tip and individuals not responding to the physical stimulation were considered dead. […]

K. pneumoniae [5] = experiment: Infection model: treatment of infected larvae; assay type: in vivo, Galleria mellonella
Protocol: as §3, §4, §5, §6

A. baumannii [6] = experiment: Dose–response growth inhibition in CAA medium; assay type: cell-based, Acinetobacter baumannii; settings: for inhibition of A. baumannii with iron supplementation: crude pyoverdine
Protocol: as §1, §2

S. aureus JE2 = experiment: Dose–response growth inhibition in CAA medium; assay type: cell-based, Staphylococcus aureus
Protocol: as §1, with “This medium contains low levels of iron, triggering pyoverdine production ([Cunrath et al., 2016]).” left out
(§7) To determine the inhibition potential of crude- and HPLC-purified pyoverdines, as well as ferribactin, we subjected A. baumannii. […] We incubated the plates at 37°C statically in the plate reader and measured the OD600 every 15 min for 24 hr. […] We subtracted the blank values and the background values caused by the treatment of the respective extract concentration from the measured growth data and calculated the integral (area under the growth curve) using the R package Growthcurver ([Sprouffske and Wagner, 2016]). […]

P. aeruginosa PAO1 = experiment: Dose–response growth inhibition in CAA medium; assay type: cell-based, Pseudomonas aeruginosa; settings: HPLC-purified ferribactin, concentration gradient
Protocol: as §1, with “This medium contains low levels of iron, triggering pyoverdine production ([Cunrath et al., 2016]).” left out
as §7

[7] = HPLC-purified ferribactin, concentration gradient

Cc1c(O)c(=O)ccn1C [deferiprone]
minimum inhibitory concentration (MIC) relative to plasma levels in human therapy (P. aeruginosa; ref Thompson et al., Visca et al.): up to 36.7 times
growth suppression at sub-MIC levels (P. aeruginosa; ref Visca et al., de Léséleuc et al.): only partially suppressed the growth
growth suppression at sub-MIC levels (A. baumannii [1]): only partially suppressed the growth

CC(=O)N(O)CCCCCNC(=O)CCC(=O)N(O)CCCCCNC(=O)CCC(=O)N(O)CCCCCN [desferoxamine]
iron affinity ([2]; ref Elalfy et al., 2023): 10^27 M^–1

O=C(N[C@H]1COC(=O)[C@@H](NC(=O)c2cccc(O)c2O)COC(=O)[C@@H](NC(=O)c2cccc(O)c2O)COC1=O)c1cccc(O)c1O [enterobactin]
iron affinity ([2]; ref Harris et al., 1979): 10^52 M^–1

CC(O)C(NC(=O)C(CO)NC(=O)C(NC(=O)C(N)CCCCNC(=O)C(CC(=O)O)NC(=O)C1CCN=C2C(NC(=O)CCC(=O)O)=Cc3cc(O)c(O)cc3N21)C(O)C(=O)O)C(=O)NC(CO)C(=O)NC(CCCCN)C(=O)NC1CCCN(O)C1=O (stereo not shown) [pyoverdine 3A06] (H-K([Asp-X1])[ξAsp(3ξ-OH)]STSK-{NH(1-OH-2-oxopiperidin-3-yl)}; configuration not given here)
growth reduction (model fit) (K. pneumoniae [3]; crude-purified pyoverdine): 9–12%
hemolysis at 1 h, 1 relative concentration (in vitro): 2.01%
reduction of the risk of death (hazard) vs untreated infection (A. baumannii [4]; relative concentration 0.05, 48 hr, Cox regression): 57.9%
reduction of the risk of death (hazard) vs untreated infection (K. pneumoniae [5]; relative concentration 0.01, injected 4 hr post infection, 48 hr, Cox regression): 51.5%

CC(NC(=O)C(NC(=O)C(CO)NC(=O)C(NC(=O)C(N)CCCCNC(=O)C(CC(=O)O)NC(=O)C1CCN=C2C(NC(=O)CCC(=O)O)=Cc3cc(O)c(O)cc3N21)C(O)C(=O)O)C(C)O)C(=O)NC(C(=O)NC(CCCCN)C(=O)NC1CCCN(O)C1=O)C(C)O (stereo not shown) [pyoverdine s3b09] (H-K([Asp-X1])[ξAsp(3ξ-OH)]STATK-{NH(1-OH-2-oxopiperidin-3-yl)}; configuration not given here)
IC50 (A. baumannii [6]; Acinetobacter baumannii, HPLC-purified pyoverdine, CAA medium, growth relative to untreated control): 5.04 µg/mL (≈ 3.73 µM)
inhibition of A. baumannii with iron supplementation (A. baumannii [6]; CAA medium + 40 µM FeCl3): greatly reduced
inhibition of A. baumannii with iron supplementation (A. baumannii [6]; CAA medium + 200 µM FeCl3): completely stalled
IC50 (S. aureus JE2; Staphylococcus aureus, JE2, HPLC-purified pyoverdine, growth relative to untreated control): 12.2 µg/mL (≈ 9.01 µM)
growth reduction (model fit) (K. pneumoniae [3]; HPLC-purified pyoverdine): 9–12%
growth reduction (model fit) (K. pneumoniae [3]; crude-purified pyoverdine): 9–12%
hemolysis at 1 h, 1 relative concentration (in vitro): 5.92%
reduction of the risk of death, significance (A. baumannii [4]; same tendency observed, z = –1.496, p=0.135): not significant
relationship between pyoverdine concentration and time-to-death (K. pneumoniae [5]; relative concentrations 0-0.1, quadratic term significant): hump-shaped

acinetobactin
iron association constant [2]: 10^26 M^–1

ferribactin [reference compound]
growth inhibition (A. baumannii [6]; HPLC-purified ferribactin, concentration gradient, CAA medium): no growth inhibition
growth inhibition (S. aureus JE2; [7]): no growth inhibition
growth inhibition (K. pneumoniae [3]; [7]): no growth inhibition
growth inhibition (P. aeruginosa PAO1): no growth inhibition

fimsbactin
iron association constant [2]: 10^27 M^–1

pyoverdine
iron affinity (Ka, association constant) ([2]; ref Meyer and Abdallah, 1978): 10^32 M^–1
